Measurements from patent US11214803B2, “Modulators of YAP1 expression” (Ionis Pharmaceuticals, Inc., priority 2019, dated 2022).
Strand notation (5' to 3'): a small letter for the sugar, then the base; units joined by * are phosphorothioate-linked, units joined directly phosphodiester-linked; [ ] holds rarer units or linkages, { } end groups; capitals alone tell only the bases. k = constrained ethyl (cEt); [5mC] = 5-methylcytosine; d = 2'-deoxy (DNA)

How the values were obtained:
[1] = test system: Yap1 mRNA; assay: Antisense inhibition of human Yap1 in A-431 cells by cEt gapmers, single dose (Example 3, RTS36584); assay type: cell-based
Outline: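 Values are % untreated control: Yap1 mRNA by quantitative RT-PCR (RTS36584), normalized to total RNA by RiboGreen. Before RNA isolation, 5,000 A-431 cells per well were exposed ~48 h to 2,000 nM 16-mer cEt gapmer, delivered without transfection reagent.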

[2] = test system: Yap1 mRNA; assay: Dose-dependent inhibition of human Yap1 in A-431 cells (Example 8, 10,000 cells per well, RTS4814); assay type: cell-based; settings: for Yap1 mRNA, % UTC: A-431 cells, 10,000 cells per well; for IC50 / % UTC (Yap1 mRNA): A-431 cells
Outline: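 Yap1 mRNA, normalized to RIBOGREEN total RNA and expressed as % untreated control, was read with RTS4814 about 48 h after free-uptake oligonucleotide treatment of A-431 cells at 10,000 cells/well. IC50 derived by linear regression of log/linear data.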

[3] = Table 27, Yap1 mRNA by 3-10-3 cEt gapmers targeting SEQ ID NO.: 1, and 2, percent of untreated control
[4] = 31.3 nM, free uptake, approximately 48 hours, RTS4814
[5] = 125.0 nM, free uptake, approximately 48 hours, RTS4814
[6] = 500.0 nM, free uptake, approximately 48 hours, RTS4814
[7] = 2000.00 nM, free uptake, approximately 48 hours, RTS4814
[8] = free uptake, approximately 48 hours, RTS4814, linear regression on log/linear plot
[9] = Table 34, Yap1 mRNA as percent of untreated control, 3-10-3 cEt gapmers targeting SEQ ID NO: 1 and 2, single dose
[10] = Table 29, Yap1 mRNA as percent of untreated control, 3-10-3 cEt gapmers targeting SEQ ID NO.: 1, and 2
[11] = Table 28, Yap1 mRNA as percent of untreated control, 3-10-3 cEt gapmers targeting SEQ ID NO.: 1, and 2
[12] = Table 35, Yap1 mRNA as percent of untreated control, 3-10-3 cEt gapmers targeting SEQ ID NO: 1 and 2, single dose
[13] = Table 26, Yap1 mRNA by 3-10-3 cEt gapmers targeting SEQ ID NO.: 1, and 2, percent of untreated control

Row | Substance | YAP1 (% UTC) [1, 3] [% UTC] | Yap1 mRNA, % UTC [2, 4] [% UTC] | Yap1 mRNA, % UTC [2, 5] [% UTC] | Yap1 mRNA, % UTC [2, 6] [% UTC] | Yap1 mRNA, % UTC [2, 7] [% UTC] | IC50 [2, 8] [nM] | YAP1 (% UTC) [1, 9] [% UTC] | % UTC (Yap1 mRNA) ([2]; 31.3 nM) [% UTC] | % UTC (Yap1 mRNA) ([2]; 125.0 nM) [% UTC] | % UTC (Yap1 mRNA) ([2]; 500.0 nM) [% UTC] | % UTC (Yap1 mRNA) ([2]; 2000.00 nM) [% UTC] | IC50 ([2]; Yap1 mRNA) [nM] | YAP1 (% UTC) [1, 10] [% UTC] | YAP1 (% UTC) [1, 11] [% UTC] | YAP1 (% UTC) [1, 12] [% UTC] | YAP1 (% UTC) [1, 13] [% UTC]
1 | 1074221 (antisense kG*kA*kA*dT*dG*dA*dG*d[5mC]*dT*d[5mC]*dG*dA*dA*k[5mC]*kA*kT) [compound 1074221] | 6 | 75 | 38 | 14 | 7 | 100 | – | – | – | – | – | – | – | – | – | –
2 | 1076084 (k[5mC]*kA*kT*d[5mC]*dA*dA*dT*dA*dG*dA*dG*dA*dG*kT*k[5mC]*kG; antisense) [compound 1076084] | – | – | – | – | – | – | 7 | 69 | 34 | 12 | 8 | 100 | – | – | – | –
3 | 1076143 (kG*kA*kT*dA*d[5mC]*dG*dA*dA*dA*dA*dA*dA*dG*k[5mC]*k[5mC]*kA; antisense) [compound 1076143] | – | 81 | 48 | 20 | 9 | 100 | – | – | – | – | – | – | 8 | – | – | –
4 | 1076077 (kG*kG*kA*dT*dT*dA*dA*dA*dG*dT*dT*dT*dT*k[5mC]*kA*k[5mC]; antisense) [compound 1076077] | 5 | 53 | 19 | 9 | 5 | < 20 | – | – | – | – | – | – | – | – | – | –
5 | 1074606 (DNA kG*kG*kT*dA*dT*dA*dA*dT*d[5mC]*dA*dT*dG*dA*kT*kT*kA) [compound 1074606] | – | 31 | 10 | 6 | 4 | < 20 | – | – | – | – | – | – | – | 4 | – | –
6 | 1074485 (kT*kT*k[5mC]*dA*d[5mC]*dT*dA*dA*dT*dA*dT*dG*dG*kT*k[5mC]*kA; antisense) [compound 1074485] | – | – | – | – | – | – | – | 47 | 14 | 5 | 3 | < 20 | – | – | 4 | –
7 | 1074484 (kT*k[5mC]*kA*d[5mC]*dT*dA*dA*dT*dA*dT*dG*dG*dT*k[5mC]*kA*kT; antisense) [compound 1074484] | – | 43 | 12 | 5 | 3 | < 20 | 3 | – | – | – | – | – | – | – | – | –
8 | 1074479 (k[5mC]*kA*kT*dT*dT*dG*d[5mC]*d[5mC]*dT*dA*dG*dG*dT*kT*k[5mC]*k[5mC]; antisense) [compound 1074479] | – | 23 | 8 | 4 | 4 | < 20 | – | – | – | – | – | – | 2 | – | – | –
9 | 1074766 (kA*kT*k[5mC]*d[5mC]*d[5mC]*dA*dA*dT*dG*d[5mC]*dT*dA*d[5mC]*k[5mC]*k[5mC]*kA; antisense) [compound 1074766] | – | 72 | 32 | 14 | 7 | 100 | – | – | – | – | – | – | – | 8 | – | –
10 | 1076525 (kG*kA*kA*dT*dT*dT*dA*dT*dA*dT*d[5mC]*dA*dG*kG*kT*k[5mC]; antisense) [compound 1076525] | 3 | 43 | 14 | 5 | 2 | < 20 | – | – | – | – | – | – | – | – | – | –
11 | 1074580 (DNA kA*k[5mC]*k[5mC]*dA*d[5mC]*dT*dA*dT*dA*dA*dA*dG*d[5mC]*kT*kT*kA; further chemistry not given here) [compound 1074580] | – | – | – | – | – | – | 5 | 55 | 18 | 8 | 5 | < 20 | – | – | – | –
12 | 1076085 (kA*k[5mC]*kT*dA*dA*dT*dA*dG*dG*d[5mC]*d[5mC]*dA*dT*k[5mC]*kT*kG; antisense) [compound 1076085] | – | – | – | – | – | – | – | 70 | 34 | 14 | 9 | 100 | – | – | 7 | –
13 | 1074452 (kT*kG*kA*d[5mC]*dT*dA*dA*dT*dG*dA*dT*dA*dG*k[5mC]*kA*k[5mC]; antisense) [compound 1074452] | – | – | – | – | – | – | 3 | 88 | 28 | 9 | 5 | 100 | – | – | – | –
14 | 1075855 (antisense kG*kA*kT*dT*dT*dT*dT*dA*dG*dG*d[5mC]*dA*dG*kA*k[5mC]*kG) [compound 1075855] | – | 65 | 30 | 12 | 8 | 100 | – | – | – | – | – | – | 7 | – | – | –
15 | 1074509 (kT*kG*kT*dT*dA*dT*dG*dT*dT*dT*dG*dG*dG*kT*kG*kT; antisense) [compound 1074509] | 5 | 44 | 12 | 6 | 5 | < 20 | – | – | – | – | – | – | – | – | – | –
16 | 1074639 (antisense kT*kA*kG*dA*dT*dT*dT*dT*dG*dT*dA*dA*dT*kT*kG*kG) [compound 1074639] | – | 46 | 18 | 7 | 5 | < 20 | – | – | – | – | – | – | 3 | – | – | –
17 | 1076556 (kG*kT*kA*dT*dA*dG*dG*d[5mC]*dA*dG*dA*dA*dG*k[5mC]*kA*kA; antisense) [compound 1076556] | – | 72 | 46 | 19 | 11 | 100 | – | – | – | – | – | – | – | – | – | 9
18 | 1075053 (antisense kA*kA*kT*dA*dT*dA*dT*dA*d[5mC]*dT*dT*dG*dA*kT*k[5mC]*k[5mC]) [compound 1075053] | 4 | 61 | 24 | 8 | 5 | 40 | – | – | – | – | – | – | – | – | – | –
19 | 1075757 (k[5mC]*kT*kT*dA*dA*dT*dA*d[5mC]*dA*dT*dT*dA*dT*kT*k[5mC]*k[5mC]; antisense) [compound 1075757] | 2 | 43 | 14 | 5 | 2 | < 20 | – | – | – | – | – | – | – | – | – | –
20 | 1074508 (kG*kA*kG*dA*dG*dA*dG*d[5mC]*dA*dG*dA*dT*dA*kA*kT*k[5mC]; antisense) [compound 1074508] | – | 62 | 30 | 14 | 8 | 50 | – | – | – | – | – | – | – | – | – | 7
21 | 1076527 (kG*k[5mC]*kA*d[5mC]*dA*dA*d[5mC]*d[5mC]*dT*dT*dA*d[5mC]*dA*kT*kT*kT; antisense) [compound 1076527] | – | 81 | 41 | 16 | 8 | 100 | – | – | – | – | – | – | 6 | – | – | –
22 | 1075118 (k[5mC]*kT*kA*dT*dT*dT*dA*d[5mC]*dT*d[5mC]*dT*dG*dT*k[5mC]*kA*k[5mC]; antisense) [compound 1075118] | – | 85 | 36 | 8 | 4 | 100 | – | – | – | – | – | – | – | 4 | – | –
23 | 1074445 (kT*kG*kA*dT*dA*dG*d[5mC]*dA*d[5mC]*dT*dA*dG*dG*kA*kG*kG; antisense) [compound 1074445] | 6 | 57 | 19 | 8 | 6 | < 20 | – | – | – | – | – | – | – | – | – | –
24 | 1075093 (k[5mC]*kA*kA*dA*dG*dT*dA*dA*dG*dG*dT*dA*dT*kG*kA*kG; antisense) [compound 1075093] | – | – | – | – | – | – | – | 74 | 26 | 7 | 4 | 100 | – | – | 3 | –
25 | 1076366 (antisense kA*kT*kT*dT*dA*d[5mC]*dA*dT*dG*dA*dG*dA*dG*kG*kA*kG) [compound 1076366] | – | 63 | 25 | 8 | 4 | 40 | – | – | – | – | – | – | – | 4 | – | –
